Test results as given in patent publication US11440887B2, “Substituted 1,2,3,4-tetrahydroquinolines as inhibitors of repair enzyme 8-oxoguanine deoxyribonucleic acid glycosylase activity” (The Board of Trustees of the Leland Stanford Junior …, priority 2017, dated 2022).

Target: OGG1 (Homo sapiens (Human), UniProt O15527)
Assay: OGG1 inhibitor assay with fluorogenic OGR1 probe (base excision, initial rates)
Assay type: biochemical
Conditions: for Enzyme activity, % of control at 2 μM: 2 μM compound; for Enzyme activity, % of control at 2 μM / Enzyme activity, % of control at 20 μM / Enzyme activity, % of control at 200 nM: ratio of initial rate slope (first 12 min) to no-compound control; for Enzyme activity, % of control at 20 μM: 20 μM compound; for IC50: initial rates method
Description: Methods: Synthesized compounds and hOGG1 (100 nM) were incubated in NEBuffer 4 (1×) with BSA (1×) at 37° C. (15 min) in 100 μL reaction volumes in a black 96-well plate. (See, e.g., Edwards, S. K., et al., ChemBioChem 2015, 16, 1637-1646, the disclosure of which is incorporated herein by reference.) After that, OGR1 (1.2 μM) was added to the reaction mixture. Fluorescence at 460 nm was measured on a Thermo Fluoroskan Ascent FL fluorescence plate reader (λex=355 nm). The slope of initial rate (12 min) was calculated, and % of control was used for inhibition activity. BSA, hOGG1 and NEBuffer 4 were purchased from New England Biolabs and used. UltraPure Distilled Water (Invitrogen) was purchased and used for the assay.

OGG1, sequence (O15527 whole entry): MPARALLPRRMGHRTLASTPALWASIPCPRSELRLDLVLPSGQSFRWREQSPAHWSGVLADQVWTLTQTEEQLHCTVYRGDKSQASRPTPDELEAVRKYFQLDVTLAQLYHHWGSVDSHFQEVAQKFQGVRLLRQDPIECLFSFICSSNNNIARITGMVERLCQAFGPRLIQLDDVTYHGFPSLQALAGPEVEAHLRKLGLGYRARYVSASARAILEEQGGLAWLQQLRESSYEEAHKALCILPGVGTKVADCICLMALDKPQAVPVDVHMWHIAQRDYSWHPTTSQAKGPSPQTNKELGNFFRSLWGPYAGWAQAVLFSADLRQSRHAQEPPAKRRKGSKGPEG

For `CCOc1ccc(S(=O)(=O)Nc2ccc3c(c2)N(C(=O)NC2CC2)CCC3)cc1` [Compound 10], the “Enzyme activity, % of control at 2 μM” value was 87 % of control and the “Enzyme activity, % of control at 20 μM” value was 77 % of control.
For `CCCOc1ccc(S(=O)(=O)Nc2ccc3c(c2)N(C(=O)C2CC2)CCC3)cc1` [Compound 24], the “Enzyme activity, % of control at 200 nM” value (200 nM compound) was 95 % of control and the “Enzyme activity, % of control at 2 μM” value was 19 % of control.
`CCOc1ccc(S(=O)(=O)Nc2cccc(NC(C)=O)c2)cc1` [Compound 12] was tested, and the “Enzyme activity, % of control at 2 μM” value was 96 % of control and the “Enzyme activity, % of control at 20 μM” value was 70 % of control.
For `O=C(C1CC1)N1CCCc2ccc(NS(=O)(=O)c3ccc(-c4ccccc4)cc3)cc21` [Compound 30], the “Enzyme activity, % of control at 200 nM” value (200 nM compound) was 90 ± 6.2 % of control and the “Enzyme activity, % of control at 2 μM” value was 29 ± 7.0 % of control.
For `CCOc1ccc(S(=O)(=O)Nc2ccc3c(c2)N(C(=O)C2CCC2)CCC3)cc1` [Compound 8], the “Enzyme activity, % of control at 2 μM” value was 69 % of control and the “Enzyme activity, % of control at 20 μM” value was 33 % of control.
With `CCOc1ccc(S(=O)(=O)N(C)c2ccc3c(c2)N(C(=O)C2CC2)CCC3)cc1` [Compound 19] the “Enzyme activity, % of control at 2 μM” value was 84 % of control and the “Enzyme activity, % of control at 20 μM” value was 79 % of control.
For `O=C(C1CC1)N1CCCc2ccc(NS(=O)(=O)c3ccc(-n4cccn4)cc3)cc21` [Compound 33], the “Enzyme activity, % of control at 200 nM” value (200 nM compound) was 81 % of control, the “Enzyme activity, % of control at 2 μM” value was 45 ± 1.3 % of control and the “Enzyme activity, % of control at 20 μM” value was 14 ± 3.2 % of control.
`O=C(C1CC1)N1CCCc2ccc(NS(=O)(=O)c3ccc(N4CCOCC4)cc3)cc21` [Compound 32] was tested, and the “Enzyme activity, % of control at 200 nM” value (200 nM compound) was 84 % of control and the “Enzyme activity, % of control at 2 μM” value was 76 % of control.
In the case of `CCOc1ccc(S(=O)(=O)Nc2ccc3c(c2)N(C(=O)C2CC2)CCCC3)cc1` [Compound 14], the “Enzyme activity, % of control at 2 μM” value is reported as 76 % of control and the “Enzyme activity, % of control at 20 μM” value is reported as 35 % of control.
`CCNc1ccc(S(=O)(=O)Nc2ccc3c(c2)N(C(=O)C2CC2)CCC3)cc1` [Compound 25] was tested, and the “Enzyme activity, % of control at 200 nM” value (200 nM compound) was ≥100 % of control, the “Enzyme activity, % of control at 2 μM” value was 58 % of control and the “Enzyme activity, % of control at 20 μM” value was 10 % of control.
`CCCc1ccc(S(=O)(=O)Nc2ccc3c(c2)N(C(=O)C2CC2)CCC3)cc1` [Compound 23] was tested, and the “Enzyme activity, % of control at 200 nM” value (200 nM compound) was 74 % of control, the “Enzyme activity, % of control at 2 μM” value was 35 % of control and the “Enzyme activity, % of control at 20 μM” value was 14 % of control.
In the case of `CCOc1ccc(S(=O)(=O)Nc2ccc3c(c2)N(C(=O)CC)CCC3)cc1` [Compound 2], the “Enzyme activity, % of control at 2 μM” value is reported as 51 ± 1.4 % of control and the “Enzyme activity, % of control at 20 μM” value is reported as 3.7 ± 0.83 % of control.
With `CCOc1ccc(S(=O)(=O)Nc2ccc3c(c2)N(C(=O)C(C)C)CCC3)cc1` [Compound 5] the “Enzyme activity, % of control at 2 μM” value was 96 % of control and the “Enzyme activity, % of control at 20 μM” value was 52 % of control.
In the case of `CCC(=O)N1CCCc2ccc(NS(=O)(=O)CC)cc21` [Compound 22], the “Enzyme activity, % of control at 2 μM” value is reported as 94 % of control and the “Enzyme activity, % of control at 20 μM” value is reported as 74 % of control.
In the case of `CCOc1ccc(S(=O)(=O)Nc2ccc3c(c2)N(C(=O)C(C)(C)C)CCC3)cc1` [Compound 6], the “Enzyme activity, % of control at 20 μM” value is reported as ≥100 % of control.
`CSc1ccc(S(=O)(=O)Nc2ccc3c(c2)N(C(=O)C2CC2)CCC3)cc1` [Compound 26] was tested, and the “Enzyme activity, % of control at 200 nM” value (200 nM compound) was 75 % of control, the “Enzyme activity, % of control at 2 μM” value was 53 % of control and the “Enzyme activity, % of control at 20 μM” value was 3.6 % of control.
In the case of `CCOc1ccc(S(=O)(=O)Nc2ccc3c(c2)N(C(=O)C2CC2)CCO3)cc1` [Compound 15], the “Enzyme activity, % of control at 2 μM” value is reported as 90 % of control and the “Enzyme activity, % of control at 20 μM” value is reported as 41 % of control.
`CCOc1ccc(S(=O)(=O)Nc2ccc3c(c2)CN(C(=O)C2CC2)CC3)cc1` [Compound 17] was tested, and the “Enzyme activity, % of control at 2 μM” value was 94 % of control and the “Enzyme activity, % of control at 20 μM” value was 88 % of control.
For `COc1ccc(-c2ccc(S(=O)(=O)Nc3ccc4c(c3)N(C(=O)C3CC3)CCC4)cc2)cc1` [Compound 36], the “Enzyme activity, % of control at 200 nM” value (200 nM compound) was 79 % of control and the “Enzyme activity, % of control at 2 μM” value was 31 % of control.
`CCOc1ccc(S(=O)(=O)Nc2ccc3c(c2)N(C(=O)CCOC)CCC3)cc1` [Compound 4] was tested, and the “Enzyme activity, % of control at 2 μM” value was 93 % of control and the “Enzyme activity, % of control at 20 μM” value was 51 % of control.
With `CNC(=O)c1cccc(-c2ccc(S(=O)(=O)Nc3ccc4c(c3)N(C(=O)C3CC3)CCC4)cc2)c1` [Compound 40] the “Enzyme activity, % of control at 200 nM” value (200 nM compound) was 48 % of control.
With `CCOc1ccc(S(=O)(=O)Nc2ccc3c(c2)N(C(=O)C2CC2)CCC3)cc1C` [Compound 27] the “Enzyme activity, % of control at 2 μM” value was 71 % of control and the “Enzyme activity, % of control at 20 μM” value was 22 % of control.
For `NNC(=O)c1sc2cccc(Cl)c2c1Cl` [Compound O8, reference compound], the “Enzyme activity, % of control at 2 μM” value was 69 % of control and the “Enzyme activity, % of control at 20 μM” value was 45 % of control.
`CCOc1ccc(S(=O)(=O)Nc2ccc3c(c2)N(S(=O)(=O)CC)CCC3)cc1` [Compound 9] was tested, and the “Enzyme activity, % of control at 2 μM” value was 96 % of control and the “Enzyme activity, % of control at 20 μM” value was 92 % of control.
`O=C(C1CC1)N1CCCc2ccc(NS(=O)(=O)c3ccc(-c4cccnc4)cc3)cc21` [Compound 34] was tested, and the “inhibition of activity at 200 nM” value (200 nM compound) was “ca. 40%”, the “Enzyme activity, % of control at 200 nM” value (200 nM compound) was 61 ± 1.3 % of control and the “Enzyme activity, % of control at 2 μM” value was 23 ± 1.5 % of control. The “Enzyme activity, % of control at 20 μM” value was 2.0 % of control and the IC50 was 270 nM.
In the case of `CN(C)c1cccc(-c2ccc(S(=O)(=O)Nc3ccc4c(c3)N(C(=O)C3CC3)CCC4)cc2)c1` [Compound 38], the “Enzyme activity, % of control at 200 nM” value (200 nM compound) is reported as 70 % of control.
In the case of `COc1cccc(-c2ccc(S(=O)(=O)Nc3ccc4c(c3)N(C(=O)C3CC3)CCC4)cc2)c1` [Compound 37], the “Enzyme activity, % of control at 200 nM” value (200 nM compound) is reported as 67 % of control and the “Enzyme activity, % of control at 2 μM” value is reported as 13 % of control.
For `CCOc1ccc(S(=O)(=O)Nc2ccc3c(c2)N(C(=O)C2CC2)CCC3)cc1` [Compound 7], the “Enzyme activity, % of control at 200 nM” value (200 nM compound) was 82 ± 12 % of control, the “Enzyme activity, % of control at 2 μM” value was 41 ± 1.7 % of control and the “Enzyme activity, % of control at 20 μM” value was 5.8 ± 1.9 % of control. It also gave an IC50 of 1100 nM.
`O=C(C1CC1)N1CCCc2ccc(NS(=O)(=O)c3ccc(-c4ccc(C(F)(F)F)cc4)cc3)cc21` [Compound 35] was tested, and the “Enzyme activity, % of control at 200 nM” value (200 nM compound) was 97 % of control and the “Enzyme activity, % of control at 2 μM” value was 72 % of control.
For `CCOc1ccc(C(=O)Nc2ccc3c(c2)N(C(=O)C2CC2)CCC3)cc1` [Compound 20], the “Enzyme activity, % of control at 2 μM” value was ≥100 % of control and the “Enzyme activity, % of control at 20 μM” value was ≥100 % of control.
For `CCOc1ccc(S(=O)(=O)Nc2ccc3c(c2)N(C(=O)CC)CC3)cc1` [Compound 13], the “Enzyme activity, % of control at 2 μM” value was 95 % of control and the “Enzyme activity, % of control at 20 μM” value was ≥100 % of control.
In the case of `O=C(C1CC1)N1CCCc2ccc(NS(=O)(=O)c3ccc(Oc4ccccc4)cc3)cc21` [Compound 28], the “Enzyme activity, % of control at 200 nM” value (200 nM compound) is reported as ≥100 % of control, the “Enzyme activity, % of control at 2 μM” value is reported as 41 ± 2.0 % of control and the “Enzyme activity, % of control at 20 μM” value is reported as 8.3 % of control. It also gave an IC50 of 1500 nM.
`CCOc1ccc(S(=O)(=O)N(O)c2ccc3c(c2)N(C(=O)C2CC2)CCC3)cc1` [Compound 18] was tested, and the “Enzyme activity, % of control at 200 nM” value (200 nM compound) was ≥100 % of control, the “Enzyme activity, % of control at 2 μM” value was 79 % of control and the “Enzyme activity, % of control at 20 μM” value was 21 % of control.
For `O=C(C1CC1)N1CCCc2ccc(NS(=O)(=O)c3ccc(C4CCCCC4)cc3)cc21` [Compound 31], the “Enzyme activity, % of control at 200 nM” value (200 nM compound) was 87 % of control and the “Enzyme activity, % of control at 2 μM” value was 25 % of control.
`O=C(C1CC1)N1CCCc2ccc(NS(=O)(=O)c3ccc4oc5ccccc5c4c3)cc21` [Compound 29] was tested, and the “Enzyme activity, % of control at 2 μM” value was 82 % of control and the “Enzyme activity, % of control at 20 μM” value was 71 % of control.
For `CCOc1ccc(S(=O)(=O)Nc2cc3c(cc2OC)CCCN3C(=O)C2CC2)cc1` [Compound 16], the “Enzyme activity, % of control at 2 μM” value was ≥100 % of control and the “Enzyme activity, % of control at 20 μM” value was 93 % of control.
In the case of `CCOc1ccc(NC(=O)Nc2ccc3c(c2)N(C(=O)C2CC2)CCC3)cc1` [Compound 21], the “Enzyme activity, % of control at 2 μM” value is reported as ≥100 % of control and the “Enzyme activity, % of control at 20 μM” value is reported as ≥100 % of control.
In the case of `CCOc1ccc(S(=O)(=O)Nc2ccc3c(c2)N(CC2CC2)CCC3)cc1` [Compound 11], the “Enzyme activity, % of control at 2 μM” value is reported as ≥100 % of control and the “Enzyme activity, % of control at 20 μM” value is reported as 83 % of control.
`CCOc1ccc(S(=O)(=O)Nc2ccc3c(c2)N(C(=O)Cc2ccccc2)CCC3)cc1` [Compound 3] was tested, and the “Enzyme activity, % of control at 2 μM” value was ≥100 % of control and the “Enzyme activity, % of control at 20 μM” value was 79 % of control.
